Here are results for one molecule from ChEMBL document CHEMBL3779887, “Robenidine Analogues as Gram-Positive Antibacterial Agents” (J Med Chem, 2016).

What is called GI50 is the concentration at which growth is held to half of that of the control. A lower GI50 goes with greater sensitivity of the cells. For orientation: MIC90 means an inhibitory concentration at the 90% level, which refers to growth in some studies and to a panel of isolates in others. For orientation: logD means lipophilicity at a set pH, counting ionised and neutral species. Low values mean lower lipophilicity, high ones higher lipophilicity. By solubility is commonly meant the concentration that dissolves in the medium under given conditions. A lower solubility goes with little dissolved substance. As a reminder, the half-life is how long it takes for the measured level to halve. Low values mean fast loss, high ones slow loss. The LD50 is the dose expected to kill half of the subjects tested. Higher therefore signals lower toxicity. Usually MBC stands for the lowest tested concentration that kills the bacteria rather than only halting them. A lower MBC goes with more potent killing.

≈ marks a conversion by molar mass, not a printed value. Calls of active or inactive are those of the source. The calls are words filed in the database; no cut-off is given here.

Data set [1] is described as follows: Cytotoxicity against human HepG2 cells after 24 hrs by WST-1 based colorimetric assay. The format is cell-based. Background: Formazan colour is commonly taken as a measure of viable cells.
In data set [2] the test system is Staphylococcus aureus. The data set is described as follows: Antibacterial activity against Staphylococcus aureus ATCC 29213 after 20 to 24 hrs in presence of 2% heat inactivated bovine serum. It is filed as functional.
The subject of another data set is Escherichia coli. The data set is described as follows: Ratio of MIC90 for Escherichia coli ATCC 25922 to MIC90 for Escherichia coli ATCC 25922 in presence of polymyxin B nonapeptide. It is filed as functional.
Another data set concerns Pseudomonas aeruginosa. The data set is described as follows: Ratio of MIC90 for Pseudomonas aeruginosa ATCC 27853 to MIC90 for Pseudomonas aeruginosa ATCC 27853 in presence of polymyxin B nonapeptide. The format is functional.
The test system of data set [3] is Staphylococcus aureus. The data set is described as follows: Bactericidal activity against methicillin-sensitive Staphylococcus aureus ATCC 29213 assessed as log reduction in bacterial cell number at MIC after 8 hrs by time-kill curve analysis. The format is functional.
Data set [4] concerns Staphylococcus aureus. The data set is described as follows: Bactericidal activity against […] Staphylococcus aureus clinical isolate USA300 assessed as log reduction in bacterial cell number at MIC after 24 hrs by time-kill curve analysis. It is filed as functional, organism-based.
Data set [5] can be described thus: Toxicity in sheep erythrocytes assessed as hemolysis after 30 mins. The format is cell-based, Ovis aries. The settings on record: erythrocyte, 0.5 h.
A short description of data set [6]: Lipophilicity, logD of the compound at pH 7.4. The format is physicochemical. The settings on record: buffer.
Data set [7] is described as follows: Solubility of the compound at pH 2. It is filed as physicochemical. Conditions: buffer.
The nature of data set [8]: Half life of compound in human liver microsomes. The format is ADME. (In general: Liver microsomes are a subcellular fraction often used to study metabolism.)
A short description of data set [9]: Half life of compound in mouse liver microsomes. The format is ADME.
Data set [10] in a line: Metabolic stability in mouse liver microsomes assessed as compound loss after 60 mins. It is filed as ADME. Conditions: read-out: Drug degradation.
A short description of data set [11]: Toxicity in po dosed rat. It is filed as organism-based. Conditions: in vivo.
A short description of data set [12]: Toxicity in po dosed female rabbit. The format is organism-based, Oryctolagus cuniculus. Conditions: in vivo.
Data set [13] in a line: Selectivity index, ratio of GI50 for human HEL299 cells to MIC50 for methicillin-sensitive Staphylococcus aureus clinical isolate. The format is functional, HEL 299.
Data set [14] is described as follows: Selectivity index, ratio of GI50 for human HepG2 cells to MIC50 for methicillin-resistant Staphylococcus aureus clinical isolate. The format is functional.
Data set [15] concerns Staphylococcus aureus. The data set is described as follows: Antibacterial activity against methicillin-sensitive Staphylococcus aureus ATCC 25923 after 20 to 24 hrs. It is filed as functional.
Data set [16] relates to Staphylococcus aureus. In words: Bactericidal activity against methicillin-sensitive Staphylococcus aureus ATCC 6538 after 24 and 48 hrs. The format is functional.
The subject of data set [17] is Staphylococcus aureus. The data set is described as follows: Bactericidal activity against methicillin-sensitive Staphylococcus aureus ATCC 49775 after 24 and 48 hrs. The format is functional.
Data set [18] concerns Staphylococcus aureus. In words: Antibacterial activity against methicillin-sensitive Staphylococcus aureus ATCC 29213 after 20 to 24 hrs in presence of 50% heat inactivated bovine serum.
The subject of data set [19] is Staphylococcus aureus. The data set is described as follows: Bactericidal activity against Methicillin-sensitive Staphylococcus aureus ATCC 29213 assessed as log reduction in bacterial cell number at MIC after 8 hrs by time kill curve analysis.

Molecule `N=C(N/N=C/c1ccc(Cl)cc1)N/N=C/c1ccc(Cl)cc1` [ROBENIDINE] yielded a GI50 at 24 h in data set [1] of 25.4 µM. Besides, the MIC90 in the data set with Staphylococcus aureus [2] is 43.1 µM; in the data set with Staphylococcus aureus [15] it was 5.4 µM (≈ 1.8 µg/mL); in the data set with Staphylococcus aureus [18], more than 250 µM. For the same molecule, the Ratio in the data set on Escherichia coli and in the data set with Pseudomonas aeruginosa was 10 in each case. For the same molecule, the values for the Activity result (in the data set on Staphylococcus aureus [3]; in [5]) were “>=4 log10CFU/ml” and “>= 173 uM”, respectively. Further, the outcome with Staphylococcus aureus [4] and in the data set on Staphylococcus aureus [19] was inactive. Besides, the logD in data set [6] was 4.5. In data set [7], this molecule had a solubility of 6.3 µg/mL (≈ 18.9 µM). For the same molecule, the half-life in [8] and in [9] was more than 4.12 h throughout. Besides, the metabolised at 1 h in [10] is less than 15%. Also, the LD50 in [11] is 3000 mg/kg; in data set [12] it was 2900 mg/kg. Besides, the “Selectivity Index” value in data set [13] and in data set [14] was 2 in each case. The MBC in the data set on Staphylococcus aureus [16] and in the data set with Staphylococcus aureus [17] was 5.4 µM (≈ 1.8 µg/mL) each time.
